Results taken from patent US12595251B2, “Amidines and amidine analogs for the treatment of bacterial infections and potentiation antibiotics” (GEORGIA STATE UNIVERSITY RESEARCH FOUNDATION, INC., priority 2018, dated 2026).
Where a name gives a salt, the structure may show the parent alone.

Experiments:
HEK293 cells = assay: Cytotoxicity in HEK293 cells (CCK-8, 24 h); assay type: cell-based; settings: for HEK293 cytotoxicity at 100 μM ("100 μM result in x%"): NT=not toxic
Description: (§1) H9c2 (ATCC®R-1446™) cells Were used in the studies. The H9c2 cells were maintained in DMEM (Dulbeccoa's Modified Eagle's Medium) supplemented with 10% fetal bovine serum (Mid Sci; S01520HI) and 1% penicillin-streptomycin (Sigma-Aldrich; P4333) at 37° C. with 5% CO2. The H9c2 cells were seeded in 96-well plate one day before the experiment. Different concentrations of di-amidine compounds were added into the H9c2 cells. The cells were then incubated with the compounds for 24 h at 37° C. with 5% CO2. The cell viability was tested by the CCK-8. Specifically, after 24 h incubation, 10 μL CCK-8 was added to each well. After 3 h incubation at 37° C., the absorbance at 450 nm was recorded by a plate reader. The cytoxicity in HEK293 and 3T3 cells was measured using the same procedure. Data is shown in Table 5 (NT=not toxic; --=not tested).

3T3 cells = assay: Cytotoxicity in 3T3 cells (CCK-8, 24 h); assay type: cell-based; settings: for 3T3 cytotoxicity at 100 μM ("100 μM result in x%"): NT=not toxic
Description: as §1

H9c2 cells = assay: Cytotoxicity in H9c2 cells (CCK-8, 24 h); assay type: cell-based
Description: as §1

E. coli = assay: Sensitization of E. coli to erythromycin (sensitization fold from IC90, OD600, 20 h); assay type: cell-based, Escherichia coli; settings: general statement on amidine substitution or ring restraint
Description: E. coli bacteria were cultured in Miller's broth at 37° C. overnight prior to treatment. B. subtilis bacteria were cultured in nutrient broth at 37° C. overnight prior to treatment. […] Bacterial density was measured based on OD600.

wild type B. subtilis = assay: Sensitization of B. subtilis toward antibiotics (MIC, OD600, 24 h); assay type: cell-based, Bacillus subtilis; settings: compound at 10 μg/ml
Description: (§2) FIG. 22A is a bar graph showing that Compound M-1 sensitizes B. subtilis towards rifampicin as described in Example 13. Bacteria was cultured with rifampicin at various concentrations in the presence or absence of Compound M-1 for 24 hours at 37° C. and bacterial growth density was determined by measuring OD600. The y-axis is growth density measured in percent. The x-axis is rifampicin concentration measured in micrograms per milliliter (***: p<0.01).
Compound M-1 can sensitize Gram-positive bacteria such as B. subtilis towards traditional antibiotics. […] The sensitization fold is 32-fold for Compound M-1 and the FIC index is 0.14.

MRSA = assay: Sensitization of MRSA toward antibiotics (OD600, 24 h); assay type: cell-based, Staphylococcus aureus; settings: compound at 10 μg/ml
Description: as §2, with “Bacteria” for “FIG. 22A is a bar graph showing that Compound M-1 sensitizes B. subtilis towards rifampicin as described in Example 13. Bacteria”
Compound M-1 (2.7 μg/ml) sensitizes MRSA towards existing antibiotics such as rifampicin (32-fold) (FIG. 22B) and trovafloxacin (16-fold). Rifampicin is the first line of defense against MRSA and many MRSA stains grow resistance to rifampicin through overexpression of efflux pump and other mechanisms. Combined with Compound M-1, rifampicin can be used more effectively against MRSA.

N=C(N)c1ccc(OCc2ccc(COc3ccc(C(=N)N)cc3)cc2)cc1 [drawing 869]
HEK293 cytotoxicity at 100 μM ("100 μM result in x%") (HEK293 cells): 100 μM result in 30% | 3T3 cytotoxicity at 100 μM ("100 μM result in x%") (3T3 cells): 100 result in 10% | H9c2 CC^50 (H9c2 cells): 50 µM

N=C(N)c1ccc(OCc2cc(COc3ccc(C(=N)N)cc3)cc(COc3ccc(C(=N)N)cc3)c2)cc1 [drawing 875]
HEK293 cytotoxicity at 100 μM ("100 μM result in x%") (HEK293 cells): 100 μM result in 10%

CCCNC(=N)c1ccc(COc2cc(C)cc(OCc3ccc(C(=N)NCCC)cc3)c2)cc1 [Compound E-13, 1,3-Bis {(4-n-propylamidino)-benzyloxy}-5-methylbenzene dihydrochloride]
Ability to sensitize Gram-negative bacteria (while preserving ability to sensitize some Gram-positive bacteria) (E. coli): greatly decrease, or even abolish | Sensitization effect on B. subtilis (wild type B. subtilis): no effect | Sensitization fold, MRSA towards rifampicin (MRSA): 16 fold

N=C(N)c1ccc(OCc2cccc(COc3ccc(C(=N)N)cc3F)c2F)c(F)c1 [drawing 854]
HEK293 CC^50 (HEK293 cells): 100 µM | 3T3 cytotoxicity at 100 μM ("100 μM result in x%") (3T3 cells): 100 μM result in 30% | H9c2 CC^50 (H9c2 cells): 50 µM

Cc1cc(CCc2ccc(C(=N)N)cc2)cc(CCc2ccc(C(=N)N)cc2)c1 [drawing 876]
HEK293 CC^50 (HEK293 cells): 50 µM | 3T3 CC^50 (3T3 cells): 50 µM

Cc1cc(COc2ccc(C(=N)N)cc2)cc(COc2ccc(C(=N)N)cc2)c1 [drawing 863]
HEK293 cytotoxicity at 100 μM ("100 μM result in x%") (HEK293 cells): 100 μM result in 20% | 3T3 cytotoxicity at 100 μM ("100 μM result in x%") (3T3 cells): 100 μM result in 20% | H9c2 CC^50 (H9c2 cells): 50 µM

Cc1cc(COc2cccc(C(=N)N)c2)cc(COc2cccc(C(=N)N)c2)c1 [drawing 884]
HEK293 cytotoxicity at 100 μM ("100 μM result in x%") (HEK293 cells): 100 μM result in 20%

Cc1cc(OCc2ccc(C(=N)N)cc2)cc(OCc2ccc(C(=N)N)cc2)c1 [drawing 877]
3T3 cytotoxicity at 100 μM ("100 μM result in x%") (3T3 cells): 100 UM result in 10%

Cc1cc(COc2ccc(C3=NCCN3)cc2)cc(COc2ccc(C3=NCCN3)cc2)c1 [drawing 864]
3T3 CC^50 (3T3 cells): 25 µM | H9c2 CC^50 (H9c2 cells): 25 µM
